Patent US20230382926A1, “COMPOUNDS AND USES THEREOF” (The University of The West Indies, priority 2022, published 2023)

Assays:
Assay in all cases: Rescue concentration, modified checkerboard MIC adjuvant assay
Assay type in all cases: cell-based
[1] = tested on: Acinetobacter baumannii clinical isolate 9978; settings: A. baumannii clinical isolate 9978
Method: (§1) Reference microorganisms as well as clinical strains used to evaluate the antimicrobial adjuvant properties of SP-6azaBIM 125 and SP-6azaBIM 136 are listed in Table 3. Clinical strains of bacteria were kindly provided by the Faculty of Medical Sciences, UWI, St. Augustine, Trinidad. All bacterial cultures were cryopreserved in 30% glycerol/Brain Heart Infusion (BHI) at −80° C. Cultures were revived on BHI agar (Oxoid Ltd, England) and maintained at 4° C. until needed.
(§2) Prior to each experiment, cultures were streaked onto clean BHI agar plates and incubated at 35° C. for 24 hours. Colonies of the respective cultures were selected and inoculated in phosphate buffer saline (pH 7.5) to a 0.5 McFarland turbidity standard (equivalent to 10^8 CFU mL^−1). For inhibitory studies the bacterial suspensions were diluted 1:100 in cation-adjusted Mueller Hinton Broth (ca-MHB) (Oxoid Ltd, England). Fastidious bacteria including Streptococcus pneumoniae, Haemophilus infuenzae and Clostridium difficile were maintained on BHI agar with 5% defibrinated sheep blood and diluted in ca-MHB with 5% defibrinated sheep blood.
(§3) Antibiotic powders used in this study were purchased from Sigma Aldrich Ltd. (WI, USA). Antibiotic stock solutions were made at 50 mg mL^−1 according to Andrews (2001) and working solutions were prepared 24 h before use and stored at 4° C.
(§4) HCl salts of the of the SP-azaBIM test compounds were prepared prior to testing and stored at 4° C. Working preparations of each compound were made to 1 mg/mL in sterile deionised water.
(§5) The antibiotic adjuvant activity of the SPazaBIMs were evaluated in combination with representative antibiotics (representing 13 antibiotic classes) against the 19 pathogens strains listed in Table 3. To assess the adjuvant properties of the SP-azaBIM molecules, a modified checkerboard minimum inhibitory concentration assay was used. A fixed concentration of the respective antibiotic (susceptible breakpoint concentration) was mixed with a twofold dilution series of the test SP-azaBIM (FIG. 1). This was to determine the concentration of SP-azaBIM needed potentiate the antibiotic at a clinically susceptible breakpoint concentration. Antibiotic susceptible breakpoint concentrations for the respective bacteria were determined using Clinical Laboratory Standards Institute (CLSI) criteria M100 ED31.
(§6) In this study, only those antibiotics to which the bacterial was classed as resistant were included in the adjuvant assays. In this assay we recorded the rescue concentration of the SP-BIM for a respective antibiotic. The rescue concentration was defined as the concentration of the adjuvant that reduces the minimum inhibitory concentration (MIC) of an antibiotic to the susceptibility breakpoint.
(§7) Immediately prior to testing, the respective antibiotic and SP-azaBIM was dissolved in sterile deionised water at 20× the required test concentration. Each microtiter well was then inoculated with 180 μl of bacterial inoculum of 10^6 CFU/ml in ca-MHB, and 10 μl each if the antibiotic and SP-azaBIM was added to the plates. These plates were then incubated at 35° C. for 24 h under aerobic conditions. A similar method was followed for the fastidious pathogens except that they were cultured in ca-MHB with 5% sheep blood and 5% CO2.
(§8) Bacterial growth was visually inspected after the incubation period and the rescue concentration of the test SP-azaBIM was determined as the lowest concentration of the compound needed to reduce bacterial growth by 99.99% at the susceptible breakpoint concentration of the antibiotic. For example, CLSI states that Pseudomonas aeruginosa is susceptible to the Imipenem if the MIC is ≤2 μg mL^−1. If the bacteria can tolerate this concentration in vitro, then the bacteria has an intermediate or absolute resistance toward that antibiotic. […]

[2] = tested on: Enterococcus faecalis ATCC 51299; settings: E. faecalis ATCC 51299
Method: as §1, §2, §3, §4, §5, §6, §7, §8

[3] = tested on: Escherichia coli ATCC 35150; settings: E. coli ATCC 35150
Method: as §1, §2, §3, §4, §5, §6, §7, §8

[4] = tested on: Klebsiella pneumoniae ATCC 49472; settings: K. pneumoniae ATCC 49472
Method: as §1, §2, §3, §4, §5, §6, §7, §8

[5] = tested on: Klebsiella pneumoniae ATCC BAA-2814; settings: K. pneumoniae ATCC BAA-2814
Method: as §1, §2, §3, §4, §5, §6, §7, §8

[6] = tested on: Pseudomonas aeruginosa MDR 5805; settings: P. aeruginosa MDR 5805
Method: as §1, §2, §3, §4, §5, §6, §7, §8

[7] = tested on: Staphylococcus aureus ATCC BAA-2312; settings: S. aureus ATCC BAA-2312
Method: as §1, §2, §3, §4, §5, §6, §7, §8

[8] = tested on: Stenotrophomonas maltophilia MDR 7785; settings: S. maltophilia MDR 7785
Method: as §1, §2, §3, §4, §5, §6, §7, §8

[9] = Amox at susceptible breakpoint 8 μg mL^−1
[10] = Cef at susceptible breakpoint 8 μg mL^−1
[11] = Col at susceptible breakpoint 2 μg mL^−1
[12] = Gen at susceptible breakpoint 4 μg mL^−1
[13] = Imi at susceptible breakpoint 2 μg mL^−1
[14] = Mero at susceptible breakpoint 2 μg mL^−1
[15] = Pol B at susceptible breakpoint 2 μg mL^−1
[16] = Amp at susceptible breakpoint 8 μg mL^−1
[17] = Chl at susceptible breakpoint 8 μg mL^−1
[18] = Dox at susceptible breakpoint 4 μg mL^−1
[19] = Tri at susceptible breakpoint 8 μg mL^−1
[20] = Imi at susceptible breakpoint 1 μg mL^−1
[21] = Col at susceptible breakpoint 8 μg mL^−1
[22] = Ceph at susceptible breakpoint 8 μg mL^−1

Oc1ccc(C(c2c[nH]c3ncccc23)c2c[nH]c3ncccc23)cc1 [SP-7azaBIM 135, 4-(bis(1H-pyrrolo[2,3-b]pyridin-3-yl)methyl)phenol]
>128 µg/mL: Rescue concentration, Cef (8) [1, 10] | Rescue concentration, Col (2) [1, 11] | Rescue concentration, Gen (4) [1, 12] | Rescue concentration, Imi (2) [1, 13] | Rescue concentration, Mero (2) [1, 14] | Rescue concentration, Pol B (2) [1, 15] | Rescue concentration, Amp (8) [2, 16] | Rescue concentration, Chl (8) [2, 17] | Rescue concentration, Dox (4) [2, 18] | Rescue concentration, Ery (0.5) ([2]; Ery at susceptible breakpoint 0.5 μg mL^−1) | Rescue concentration, Tri (8) [2, 19] | Rescue concentration, Van (4) ([2]; Van at susceptible breakpoint 4 μg mL^−1) | Rescue concentration, Amp (8) [3, 16] | Rescue concentration, Cip (0.25) ([3]; Cip at susceptible breakpoint 0.25 μg mL^−1) | Rescue concentration, Dox (4) [3, 18] | Rescue concentration, Gen (4) [3, 12] | Rescue concentration, Amox (8) [4, 9] | Rescue concentration, Amp (8) [4, 16] | Rescue concentration, Col (8) [4, 21] | Rescue concentration, Imi (1) [4, 20] | Rescue concentration, Mero (1) ([4]; Mero at susceptible breakpoint 1 μg mL^−1) | Rescue concentration, Pol B (8) ([4]; Pol B at susceptible breakpoint 8 μg mL^−1) | Rescue concentration, Amox (8) [5, 9] | Rescue concentration, Amp (8) [5, 16] | Rescue concentration, Aze (4) ([5]; Aze at susceptible breakpoint 4 μg mL^−1) | Rescue concentration, Azi (16) ([5]; Azi at susceptible breakpoint 16 μg mL^−1) | Rescue concentration, Cef (16) ([5]; Cef at susceptible breakpoint 16 μg mL^−1) | Rescue concentration, Ceph (8) [5, 22] | Rescue concentration, Chl (8) [5, 17] | Rescue concentration, Col (8) [5, 21] | Rescue concentration, Dox (4) [5, 18] | Rescue concentration, Gen (4) [5, 12] | Rescue concentration, Imi (1) [5, 20] | Rescue concentration, Tet (4) ([5]; Tet at susceptible breakpoint 4 μg mL^−1) | Rescue concentration, Col (2) [6, 11] | Rescue concentration, Gen (4) [6, 12] | Rescue concentration, Imi (2) [6, 13] | Rescue concentration, Mero (2) [6, 14] | Rescue concentration, Pol B (2) [6, 15] | Rescue concentration, Azi (2) ([7]; Azi at susceptible breakpoint 2 μg mL^−1) | Rescue concentration, Gen (4) [7, 12] | Rescue concentration, Pen (0.12) ([7]; Pen at susceptible breakpoint 0.12 μg mL^−1) | Rescue concentration, Tri (8) [7, 19] | Rescue concentration, Van (2) ([7]; Van at susceptible breakpoint 2 μg mL^−1) | Rescue concentration, Cef (8) [8, 10] | Rescue concentration, Ceph (8) [8, 22] | Rescue concentration, Chl (8) [8, 17] | Rescue concentration, Cip (2) ([8]; Cip at susceptible breakpoint 2 μg mL^−1) | Rescue concentration, Gen (4) [8, 12] | Rescue concentration, Imi (2) [8, 13] | Rescue concentration, Mero (2) [8, 14] | Rescue concentration, Tri (2) ([8]; Tri at susceptible breakpoint 2 μg mL^−1)
64 µg/mL: Rescue concentration, Imi (1) [3, 20] | Rescue concentration, Amox (8) [6, 9]
>127 µg/mL: Rescue concentration, Amox (8) [1, 9]
